The values that follow are results of earlier work, collected in US20020016372A1, “Method for preventing and treating alzheimer's disease and brain damage associated with cardiov ascular disease and head injury” (priority 2000, published 2002).

Entries after “also recorded” stand apart in the source; their conditions may differ. Where two headings read alike, the source gives them in different places.

In one data set the test system is NGF. The settings on record: aged rodents.
In the next data set the test system is Human Lymphocytes. The settings on record: comet assay.
Data set [1] deals with Caco-2 Colon Carcinoma Cells. The following applies: oxidant effect.
For the next data set, the system named is brain sulfotransferase. The following applies: mice; for brain sulfotransferase activity: in vivo.
The conditions of data set [2]: rat, dietary supplementation.
Data set [3] deals with protein tyrosine phosphorylation in the brain. The settings on record: chick embryo.

In the case of `COC1=C(OC)C(=O)C(CCCCCCCCCCO)=C(C)C1=O` [Idebenone], the “NGF levels in the brains” value in the data set with NGF is “increases”. Besides, the “activity in AD patients” value is listed as “appeared to have some activity” (European trials) and “no activity was found” (U.S. trial (abandoned)).
On to `CC1=CC(=O)c2ccccc2C1=O` [menadione, 2-methylnaphthoquinone], for which the DNA damage entry in the data set with Human Lymphocytes is on record as “can induce DNA damage”. In addition, in data set [1], the calcium-mediated signaling result is listed as “perturb” and the “thiol-containing compounds in cells” value was “can deplete”.
Regarding `CC1=C(C/C=C(\C)CCC[C@H](C)CCC[C@H](C)CCCC(C)C)C(=O)c2ccccc2C1=O` [phylloquinone, Phylloquinone], in the data set on brain sulfotransferase, the brain sulfotransferase activity result is reported as “increased”. Further, the “concentration of menaquinone-4 in the brain” value in data set [2] is on record as “increased; also recorded: augments”.
Regarding `CC(=O)CC(c1ccccc1)c1c(O)c2ccccc2oc1=O` (stereo not drawn) [warfarin], the “protein tyrosine phosphorylation in the brain” value in data set [3] was “decreases”. Moreover, in the data set with brain sulfotransferase, the “incorporation of labeled sulfate into brain sulfatides” value is listed as “decrease” and the brain sulfotransferase activity entry is given as “decrease”.
As for vitamin K, in data set [3], the “protein tyrosine phosphorylation in the brain” value was “increases”.
